Assay results reported in patent US20250099622A1, “COMPOSITIONS AND METHODS FOR EXPRESSING THERAPEUTICS” (priority 2022, published 2025).
Entries after “also recorded” stand apart in the source; their conditions may differ.

Tests used:
[1] = system: retinal ganglion cells (RGC); assay: NMDA excitotoxicity mouse model: RGC count by retinal Flatmount; assay type: in vivo, C57BL/6)
Description: This study was for evaluating the effect of adeno-associated viral (AAV) vectors on retinal ganglion cell protection following damage caused via N-methyl-D-aspartate (NMDA) administration in the mouse. […] Groups 7 and 8 were added to test a higher concentration of MK-801. […] This study was conducted in wild type mice (Mus musculus, C57BL/6).
300 μL of the 5 mM NMDA stock was combined with 300 μL of sterile PBS and 1 μL as injected on Day 0 for a final concentration of 2.5 mM NMDA.
300 μL of the 5 mM NMDA stock as combined with 300 μL of sterile-filtered MK-801 and 1 μL was injected on Day 0 for a final concentration of 2.5 mM NMDA/100 μM MK-801.
300 μL of the 5 mM NMDA stock was combined with 300 μL of sterile PBS and 1 μL was injected on Day 0 for a final concentration of 2.5 mM NMDA.
On Day −28 or Day 0 based on the experimental design, mice were given buprenorphine 0.01-0.05 mg/kg subcutaneously (SQ). Animals were then tranquilized for the intravitreal injections with ketamine/xylazine or inhaled isoflurane and one drop of 0.5% proparacaine HCl was applied to both eyes. The conjunctiva was gently grasped with Dumont #4 forceps, and the injection was made using a 33 G needle and a Hamilton syringe. After dispensing the syringe contents, the syringe needle was slowly withdrawn. Following the injection procedure, 1 drop of Ofloxacin ophthalmic solution was applied topically to the ocular surface with eye lube.
Eyes were enucleated and immediately fixed in 4% paraformaldehyde in phosphate-buffered saline (PBS) and stored overnight at 4° C. The following day, the eyes were transferred to cold immunocytochemistry (ICC) buffer (PBS containing 0.5% BSA and 0.2% Tween 20) until processing. Using a dissecting microscope, the eye was carefully trimmed of extraneous tissue at the limbus and, using fine curved scissors, the anterior chamber was removed. Retinas in the eye cup were rinsed with cold ICC buffer. Eye cups were placed in cold ICC buffer containing 1/100 rat anti-CNP36 (Groups 3-6 only; resuspended at 0.5 mg/mL in PBS) for 3 hours at 4° C. Eye cups were then washed extensively and stained with 1/200 donkey anti-rat Cy3 and 1/1,000 DAPI for 2-3 hours at 4° C. Groups 1 and 2 were stained with 1/500 TUJ-1 and 1/1000 DAPI, while Groups 7 and 8 were incubated with 1/1,000 DAPI alone. Eye cups were washed extensively but gently with cold ICC buffer. Using fine curved scissors and an eyelash knife, the retina was detached from the optic nerve head and removed from the RPE/choroid. Radial cuts were then made toward the center and retinas were flat mounted, covered, and sealed. 2D fluorescent microscopy images were acquired using an Olympus Bx63 upright fluorescent microscope. […] Images at 20× were acquired in 4 quadrants and a central 248.1×325.7 μm region was analyzed for RGC counts using Olympus cellSens and ImageJ software.
Groups 1 and 2 were stained with DAPI and TUJ-1 and images were captured at 20× (FIG. 10A). RGCs were counted in four quadrants, and cells/mm2 were averaged across each group.
Groups 3-8 were stained for DAPI and four images were captured for each retina at 20× approximately 600 μm from the optic nerve head. RGCs were counted in a central 248.1×325.7 μm region and cells/mm2 were averaged over each group (FIG. 10C).
The statistical analyses were performed on the Group 3-8 RGC data (one-way ANOVA followed by multiple comparisons using the Dunnett statistical hypothesis comparison).

[2] = system: retinal ganglion cells (RGC); assay: NMDA excitotoxicity mouse model: RGC count by H&E histopathology; assay type: in vivo, C57BL/6); conditions: for RGC #/HPF (400X): H&E, single animals, Group 2
Description: This study was for evaluating the effect of adeno-associated viral (AAV) vectors on retinal ganglion cell protection following damage caused via N-methyl-D-aspartate (NMDA) administration in the mouse. Injection volumes and treatment options can be found in Table 18. Groups 7 and 8 were added to test a higher concentration of MK-801. The tissues for bioanalysis were snap frozen whole instead of being homogenized. The methods of adding IBMX to whole blood were established and clarified. This study was conducted in wild type mice (Mus musculus, C57BL/6).
Following euthanasia, eyes of elected animals were processed for histological or immunological examination. The ODs of animal 519 (Group 5) and 629 (Group 6) were noted to have a very small lens, blood in the retina, and the eye was filled with a gel-like substance. […] For Groups 1 and 2, immediately following euthanasia, selected eyes were collected into 10% neutral buffered formalin. The eyes were placed in 70% ethanol the following day. The eyes were then processed to paraffin blocks for sectioning. Sagittal sections of each eye (5 μm thickness) were prepared for all animals. At least 3 slides containing a ribbon of approximately 5 sections were collected sequentially. The optic nerve was included in the sectioning. The slides were stained for hematoxylin and eosin (H&E) and examined using light microscopy. Retinal ganglion cells (RGC) were counted (Table 19 and FIG. 9C).

[3] = system: TUJ-1+ and cone arrestin+ cells; assay: NMDA excitotoxicity mouse model: immunohistochemistry (TUJ-1, cone arrestin); assay type: in vivo, C57BL/6); conditions: Groups 1 and 2, Day 7, qualitative
Description: All eyes designated for immunohistochemistry (IHC) were enucleated, the approximate site of injection was marked, and eyes were fixed at 4° C. in 4% paraformaldehyde in separately labeled vials overnight. Eyes were then transferred into 0.1M phosphate buffer (PB), brought through a sequential sucrose gradient (10-30%, 1 hour each) followed by embedding in OCT medium and freezing on dry ice.
Negative controls were performed for the staining cocktail by utilizing only the secondary antibody. Five slides spanning the retina for each eye were stained. Two pictures per retinal cross-section—one at or near the injection site and one from a central region—were taken using an Olympus Bx63 upright fluorescent microscope and cellSens software. […] All groups had clear cone arrestin staining with some TUJ-1+ cells observed (FIG. 12B). No further staining or analysis was performed on cross-sections as the staining was not an informative endpoint.

[4] = system: NIH3T3 cells (cGMP secreted); assay: EC50 for CNP-Fc constructs, cGMP ELISA of NIH3T3 supernatant; assay type: cell-based; conditions: NIH3T3, 30 minutes, 1.8 mM IBMX, cGMP secreted by the cells; FIG. 25B
Description: EC50 for CNP-Fc described herein were measured by ELISA. 2.5E+05 NIH3T3 cells/well were plated. […] After 30 minutes, supernatant was collected for cGMP determined via ELISA. FIG. 25A illustrates a standard curve of cGMP.

[5] = system: intraocular pressure (IOP); assay: Rat partial optic nerve transection (pONT) model: intraocular pressure (Tonolab tonometry); assay type: in vivo, rat (Dark Agouti)
Description: (§1) Using an experimental rat model of partial optic nerve transection (pONT), effects of Adeno-associated virus (AAV) CNP peptide (AAV-P) and protein Fc fusion (AAV-FP) on: retinal ganglion cell (RGC) apoptosis/stress in vivo was assessed using detection of apoptosing retinal cells (DARC) imaging; intraocular inflammation in vivo using Optical Coherence Tomography (OCT) imaging; intraocular pressure (IOP) in vivo using Tonolab tonometry; RGC survival histologically using immunohistochemistry on retinal whole mounts; and retinal microglial activity histologically using immunohistochemistry on retinal whole mounts.
(§2) In total, seventy-two male Dark Agouti (DA) rats aged 8-10 weeks were used in this study. The seventy-two animals were randomly divided into 3 categories.
(§3) Intravitreal injections (IVT, 4 μL) were given under general anesthesia (GA), according to the categories, and administered to the left eye (pONT eye) only once using a 34-gauge Hamilton needle at day 0 after BL imaging. pONT was performed at week 3 in Categories 1 and 2. In Category 3, pONT was performed soon after baseline imaging.
Partial optic nerve transection (pONT) surgery was performed under GA at week 3 in categories 1 and 2. […]
IOP. […] Ten IOP readings were collected from each eye of each animal at each time point.
IOP measurements were performed three times a week at weeks 1, 2, and 4. DARC spots on in vivo images were automatically counted by an algorithm developed and validated in the Cordeiro lab. […] RBPMS^+ RGCs in retinal whole mounts were automatically counted and analyzed by a recently developed and validated algorithm in the Cordeiro lab. […] The morphology of microglia in retinal whole mounts was automatically analyzed by a recently developed and validated machine learning approach in the Cordeiro lab.
IOP analysis in the both Fc4-CNP36 (FP) and AAV treatment. […] The IOP data was analyzed by subtracting OD (the right eye) from OS (the left eye) in each animal at each time point. […] FIG. 16A illustrates animal IOP monitored during the course of the study. […]

[6] = system: apoptosing retinal cells (RGC apoptosis); assay: Rat pONT model: DARC imaging of RGC apoptosis; assay type: in vivo, rat (Dark Agouti)
Description: as §1, §2, §3
Partial optic nerve transection (pONT) surgery was performed under GA at week 3 in categories 1 and 2. In category 3, pONT surgery was performed on day 0 after BL imaging. […]
DARC/OCT. under GA, DARC/OCT imaging was conducted at baseline (BL), weeks 1, 2, and 4 in categories 1 and 2. pONT was performed at week 3. […] Briefly, fluorescently labelled annexin 776 (6 mg/mL, 40 μL) was […] administrated 2 hours before DARC imaging and then assessed with a confocal scanning laser ophthalmoscope (cSLO). […]
IOP measurements were performed three times a week at weeks 1, 2, and 4. DARC spots on in vivo images were automatically counted by an algorithm developed and validated in the Cordeiro lab. […] RBPMS^+ RGCs in retinal whole mounts were automatically counted and analyzed by a recently developed and validated algorithm in the Cordeiro lab. […] The morphology of microglia in retinal whole mounts was automatically analyzed by a recently developed and validated machine learning approach in the Cordeiro lab. […]

[7] = system: retinal ganglion cells (RGC); assay: Rat pONT model: RGC survival, RBPMS+ RGCs in retinal whole mounts; assay type: in vivo, rat (Dark Agouti)
[8] = Rat pONT model: ELISA of Fc4-CNP36 / CNP36 in ocular homogenate and serum; conditions: after IVT of FP protein, terminal samples; FIG. 18
Description: Make a mixture of RIPA and the protease inhibitor was prepared by adding one tablet of protease inhibitor in 10 mL of RIPA buffer. Ocular tissue was measured for the amount of buffer needed. For every 1 mg of tissue, 10 μL of buffer was added. The tube containing the tissue was sonicated for 20 seconds on ice followed by 20 seconds of rest on ice. The sonication and chilling on ice was repeated two more times making 3 cycles in total.
After complete homogenization, the tubes were placed on an orbital shaker in cold room for two hours. After two hours, the tubes were centrifuged for five minutes at 13,000 rpm. The supernatants were collected and stored store at −80° C.
Animals were culled at week 4 in categories 1 and 2, and at week 1 in category 3. Before culling, a blood sample (at least 2 mL) was collected by cardiac puncture under the terminal procedure, centrifuged to collect serum, and stored at −80° C.
The remaining three blocks (blocks 4-6) of animals from each category (36 rats in total) were used for protein analysis. After culling, both eyes from each animal were enucleated and snap-frozen with liquid nitrogen, cryogenically homogenized with mortar and pestle and stored at −80° C. until protein analysis.
A serial dilution of CNP-Fc can be used in the assay. The detection range of CNP-Fc concentration in this assay can be from 0.78 to 50 ng/mL. […]

**Q.** For `C[C@]12N[C@H](Cc3ccccc31)c1ccccc12` [MK-801], which “RGC protection by positive control” value ([1]; 100 μM MK-801) is on record?
**A.** Its value is “fully rescued the NMDA RGC loss phenotype”.

**Q.** And the “RGC count, retinal Flatmount (Groups 1 and 2)” value ([1]; Group 2 ODs, NMDA + MK-801 co-injection IVT Day 0, DAPI and TUJ-1)?
**A.** The value was 9,000±500 cells/mm2.

**Q.** And the “RGC count, retinal Flatmount (Groups 3-8)” value ([1]; Group 8 ODs, NMDA + 100 μM MK-801 co-injection IVT Day 0, DAPI)?
**A.** The value was 12,000±300 cells/mm2.

**Q.** And the “P, RGC count NMDA+MK-801-treated (Group 8) versus NMDA-treated (Group 7 OD) eyes” value ([1]; one-way ANOVA, Dunnett, MK-801 100 μM)?
**A.** The value was under 0.0001.

**Q.** What about the “mean RGC count, Group 2 versus Group 1” value ([2]; H&E histopathology, ODs and OSs) of the same compound?
**A.** The value was “no differences in the mean RGC count”.

**Q.** What about the “RGC #/HPF (400X)” value ([2]; L eye (OS, control eye, no NMDA)) of the same compound?
**A.** The value was “RGC #/HPF (400X) = 37; also recorded: RGC #/HPF (400X) = 35; also recorded: RGC #/HPF (400X) = 55; also recorded: RGC #/HPF (400X) = 38”.

**Q.** What about the “RGC #/HPF (400X)” value ([2]; R eye (OD, experimental eye: NMDA + MK-801)) of the same compound?
**A.** The value was “RGC #/HPF (400X) = 41; also recorded: RGC #/HPF (400X) = 31”.

**Q.** And the “number of TUJ-1+ and cone arrestin+ cells between groups” value [3]?
**A.** Its value is “did not appear to be a difference”.

**Q.** Which results are given for “AMI263: purified fusion protein Fc4-(G4S)4-CNP36 (IgG4 Fc), SEQ ID NO: 135”?
**A.** EC50 values (rank order) [4]: CNP-22 ≡Fc4-CNP36>Aflibercept-Fc4-CNP36>Fc1-CNP36>>Fc4-CNP22; effect on IOP ([5]; IVT 2, 20 and 80 μg/eye of affinity purified FP): significant effect on IOP reduction; dose at which IOP reduction reached maximal ([5]; IVT, range 2-80 μg/eye): 2 μg/eye; p, reduction in the IOP ([5]; all FP concentrations (2, 20, 80 μg/eye IVT), Day 1 compared to baseline (Day 0) or Day 7 after pONT): < 0.01; p, DARC count FP (High) versus AAV-Negative ([6]; 80 μg/eye IVT): 0.0078; DARC count, FP conditions ([6]; FP 2, 20, 80 μg/eye IVT, baseline subtracted, listed as FP): lowest DARC count; also recorded: dose-dependent effect; DARC count at highest FP dose ([6]; FP (H) = 80 μg/eye IVT, listed as FP): complete inhibition of DARC formation; also recorded: significant reduction compared to Sham control; RGC counts versus FP dose ([7]; FP 2, 20, 80 μg/eye IVT, FIG. 17B): increased with dose increase; RGC counts in eyes after treatment ([7]; summary): RGC counts increased; FP4-CNP36 levels in treated eyes (OS) [8]: correlated to the dose amount
